Results published in the NIST ThermoML archive (doi:10.1016/j.jct.2015.02.004).
Numbers after ± are expanded uncertainties.

Conditions: 298.15 K; 101.33 kPa; Liquid; Pycnometric method

Going from `COC(C)(C)C` [2-methoxy-2-methylpropane] to `CCOC(C)=O` [ethyl acetate], the mass density rises from 734.1 ± 1.9 kg/m3 to 893.4 ± 2.1 kg/m3.

`CO` [methanol] and `CCO` [ethanol] are within error of each other in mass density: 786.3 ± 1.9 kg/m3 for the first, 784.2 ± 1.9 kg/m3 for the second.

`CC(C)=O` [acetone] and `CC(C)O` [propan-2-ol] are within error of each other in mass density: 783.8 ± 1.9 kg/m3 for the first, 780.6 ± 1.9 kg/m3 for the second.

First: CCCCO [butan-1-ol]
Second: CC#N [acetonitrile]
The mass density of the first is higher: 805.5 ± 2 kg/m3 for the first, 776.3 ± 1.9 kg/m3 for the second.
